The values below come from patent publication US7638639B2, “Substituted pyrrolidine and related compounds” (Theravance, Inc., priority 2003, dated 2009).

In general, Ki refers to the dissociation constant of the complex between target and ligand, obtained from inhibition or displacement.

Molecules are shown by their SMILES. Like-named read-outs stand apart in the source and are kept apart here. Bounds are passed on as bounds.

The target of assay [1] is T1, hM3 muscarinic receptor subtype (Homo sapiens, UniProt P20309).
T1 construct: expressed in transfected cells
T1 sequence (P20309 whole entry): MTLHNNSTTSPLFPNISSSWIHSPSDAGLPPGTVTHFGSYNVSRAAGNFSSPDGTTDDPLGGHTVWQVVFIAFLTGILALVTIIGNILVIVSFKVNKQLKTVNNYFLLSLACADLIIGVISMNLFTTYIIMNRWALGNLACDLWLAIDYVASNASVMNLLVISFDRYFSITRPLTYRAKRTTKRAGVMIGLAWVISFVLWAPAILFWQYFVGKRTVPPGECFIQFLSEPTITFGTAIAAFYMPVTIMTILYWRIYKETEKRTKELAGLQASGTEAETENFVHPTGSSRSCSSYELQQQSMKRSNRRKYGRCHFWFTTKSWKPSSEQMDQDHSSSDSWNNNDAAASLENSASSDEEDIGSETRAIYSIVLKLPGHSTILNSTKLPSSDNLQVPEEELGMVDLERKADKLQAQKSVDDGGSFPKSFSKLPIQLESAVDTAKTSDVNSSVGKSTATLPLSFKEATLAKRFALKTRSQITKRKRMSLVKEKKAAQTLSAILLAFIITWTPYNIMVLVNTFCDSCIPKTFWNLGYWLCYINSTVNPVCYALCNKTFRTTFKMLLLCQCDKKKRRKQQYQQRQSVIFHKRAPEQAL
Briefly: Radioligand binding assay ([3H]-NMS displacement), hM3. As to conditions: for Δ hM3: change in binding affinity relative to compound of the invention: ratio of hM3 Ki values. How it is done:
(§1) A. Membrane Preparation from Cells Expressing hM1, hM2, hM3 and hM4 Muscarinic Receptor Subtypes
(§2) CHO (Chinese hamster ovary) cell lines stably expressing cloned human hM1, hM2, hM3 and hM4 muscarinic receptor subtypes, respectively, were grown to near confluency in medium consisting of HAM's F-12 supplemented with 10% FBS (Fetal Bovine Serum) and 250 μg/mL Geneticin. The cells were grown in a 5% CO2, 37° C. incubator and lifted with 2 mm EDTA in dPBS. Cells were collected by 5 minute centrifugation at 650×g, and cell pellets were either stored frozen at −80° C. or membranes were prepared immediately. For membrane preparation, cell pellets were resuspended in lysis buffer and homogenized with a Polytron PT-2100 tissue disrupter (Kinematica AG; 20 seconds×2 bursts). Crude membranes were centrifuged at 40,000×g for 15 minutes at 4° C. The membrane pellet was then resuspended with resuspension buffer and homogenized again with the Polytron tissue disrupter. The protein concentration of the membrane suspension was determined by the method described in Lowry, O. et al., 1951, […]: 193, 265. All membranes were stored frozen in aliquots at −80° C. or used immediately. Aliquots of prepared hM5 receptor membranes were purchased directly from Perkin Elmer and stored at −80° C. until use.
(§3) B. Radioligand Binding Assay on Muscarinic Receptor Subtypes hM1, hM2, hM3, hM4 and hM5
(§4) Radioligand binding assays were performed in 96-well microtiter plates in a total assay volume of 100 μL. CHO cell membranes stably expressing either the hM1, hM2, hM3, hM4 or hM5 muscarinic subtype were diluted in assay buffer to the following specific target protein concentrations (μg/well): 10 μg for hM1, 10-15 μg for hM2, 10-20 μg for hM3, 10-20 μg for hM4, and 10-12 μg for hM5. The membranes were briefly homogenized using a Polytron tissue disruptor (10 seconds) prior to assay plate addition. Saturation binding studies for determining KD values of the radioligand were performed using L-[N-methyl-3H]scopolamine methyl chloride ([^3H]-NMS) (TRK666, 84.0 Ci/mmol, Amersham Pharmacia Biotech, Buckinghamshire, England) at concentrations ranging from 0.001 nM to 20 nM. Displacement assays for determination of Ki values of test compounds were performed with [^3H]-NMS at 1 nM and eleven different test compound concentrations. The test compounds were initially dissolved to a concentration of 400 μM in dilution buffer and then serially diluted 5× with dilution buffer to final concentrations ranging from […] to […]. The addition order and volumes to the assay plates were as follows: 25 μL radioligand, 25 μL diluted test compound, and 50 μL membranes. Assay plates were incubated for 60 minutes at 37° C. Binding reactions were terminated by rapid filtration over GF/B glass fiber filter plates (PerkinElmer Inc., Wellesley, Mass.) pre-treated in 1% BSA. Filter plates were rinsed three times with wash buffer (10 mm HEPES) to remove unbound radioactivity. Plates were then air dried, and 50 μL Microscint-20 liquid scintillation fluid (PerkinElmer Inc., Wellesley, Mass.) was added to each well. The plates were then counted in a PerkinElmer Topcount liquid scintillation counter (PerkinElmer Inc., Wellesley, Mass.). Binding data were analyzed by nonlinear regression analysis with the GraphPad Prism Software package (GraphPad Software, Inc., San Diego, Calif.) using the one-site competition model. Ki values for test compounds were calculated from observed IC50 values and the KD value of the radioligand using the Cheng-Prusoff equation (Cheng Y; Prusoff W H. (1973) Biochemical Pharmacology, 22(23):3099-108). Ki values were converted to pKi values to determine the geometric mean and 95% confidence intervals. These summary statistics were then converted back to Ki values for data reporting.

The target of assay [2] is T2, hM2 muscarinic receptor subtype (Homo sapiens, UniProt P08172).
T2 construct: expressed in transfected cells
T2 sequence (P08172 1-466): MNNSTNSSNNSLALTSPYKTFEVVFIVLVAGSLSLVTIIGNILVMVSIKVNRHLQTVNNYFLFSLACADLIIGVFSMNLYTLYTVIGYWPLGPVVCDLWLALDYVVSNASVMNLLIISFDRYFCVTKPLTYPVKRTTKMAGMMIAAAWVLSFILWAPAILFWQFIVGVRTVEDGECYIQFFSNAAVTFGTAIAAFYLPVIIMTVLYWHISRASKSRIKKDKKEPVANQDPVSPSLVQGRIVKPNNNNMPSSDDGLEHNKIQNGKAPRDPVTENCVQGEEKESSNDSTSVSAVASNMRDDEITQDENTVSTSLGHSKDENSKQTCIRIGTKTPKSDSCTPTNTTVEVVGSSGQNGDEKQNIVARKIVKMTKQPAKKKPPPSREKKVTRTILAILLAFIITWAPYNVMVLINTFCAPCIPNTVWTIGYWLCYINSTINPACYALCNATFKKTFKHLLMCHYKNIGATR
The experiment in a line: Radioligand binding assay ([3H]-NMS displacement), hM2. As to conditions: for Ki: CHO cell membranes, [3H]-NMS 1 nM, read-out: hM2 binding affinity (Ki); for Δ hM2: change in binding affinity relative to compound of the invention: ratio of hM2 Ki values. The protocol:
as §1, §2, §3, §4

The mark [3] stands for this setting: radioligand displacement, read-out: Ki value for hM3.
Setting [4] is: CHO cell membranes, [3H]-NMS 1 nM, read-out: hM3 binding affinity (Ki).

Consider `NC(=O)C(c1ccccc1)(c1ccccc1)[C@@H]1CCN(CCCCCCCCCNCc2ccccc2)C1` [Example 26, 2-[(S)-1-(9-Benzylaminononyl)pyrrolidin-3-yl]-2,2-diphenylacetamide], for which, in assay [1] (setting [3]), the Ki is below 50 nM.

Take `CC(CCCCCCCN1CC[C@@H](C(C(N)=O)(c2ccccc2)c2ccccc2)C1)N(C)CCO` (stereo partly drawn) [Comp. Ex. C, 2-{(S)-1-[8-N-(2-Hydroxyethyl)-N-methylaminononyl]pyrrolidin-3-yl}-2,2-diphenylacetamide, reference compound]: the Ki in assay [2] amounted to 83 nM; in assay [1] (setting [4]) it was 73 nM.

As for `CNCCCCCCCCCN1CC[C@@H](C(C(N)=O)(c2ccccc2)c2ccccc2)C1` [Example 14, 2-[(S)-1-(9-Methylaminnonyl)pyrrolidin-3-yl]-2,2-diphenylacetamide], the inhibitory constant (Ki) in assay [2] is 1.7 nM; in assay [1] (setting [4]) it was 0.66 nM; in assay [1] (setting [3]) it was below 50 nM. Further, the “Δ hM2: change in binding affinity relative to compound of the invention” value in assay [2] is given as “×70”. In assay [1], the “Δ hM3: change in binding affinity relative to compound of the invention” value is reported as “×37”.

Take `CN(C)CCCCCCCCCN1CC[C@@H](C(C(N)=O)(c2ccccc2)c2ccccc2)C1` [Comp. Ex. B, 2-[(S)-1-(9-Dimethylaminononyl)pyrrolidin-3-yl]-2,2-diphenylacetamide, reference compound]: the Ki in assay [2] is 120 nM; in assay [1] (setting [4]), 25 nM.

As for `CNCCCCCCCCN1CC[C@H](C(C(N)=O)(c2ccccc2)c2ccccc2)C1` [Example 27, 2-[(R)-1-(8-Methylaminooctyl)pyrrolidin-3-yl]-2,2-diphenylacetamide], the inhibition constant (Ki) in assay [1] (setting [3]) is below 50 nM.

As to `NC(=O)C(c1ccccc1)(c1ccccc1)[C@@H]1CCN(CCCCCCCCNCCO)C1` [Example 8, 2-{(S)-1-[8-(2-Hydroxyethyl)aminooctyl]pyrrolidin-3-yl}-2,2-diphenylacetamide], in assay [2], the inhibitory constant (Ki) came out at 13 nM and the “Δ hM2: change in binding affinity relative to compound of the invention” value is listed as “×6.3”. Further, in assay [1] (setting [4]), the inhibition constant Ki was 5.1 nM. Further, the “Δ hM3: change in binding affinity relative to compound of the invention” value in assay [1] is “×14”.

On to `NCCCCCCCCN1CC[C@@H](C(C(N)=O)(c2ccccc2)c2ccccc2)C1` [Comp. Ex. D, 2-[(S)-1-(8-Aminooctyl)pyrrolidin-3-yl]-2,2-diphenylacetamide, reference compound], for which the Ki amounted to 150 nM in assay [2] and 50 nM in assay [1] (setting [4]).

On to `CN(C)CCCCCCCCN1CC[C@@H](C(C(N)=O)(c2ccccc2)c2ccccc2)C1` [Comp. Ex. A, 2-[(S)-1-(8-Dimethylaminooctyl)pyrrolidin-3-yl]-2,2-diphenylacetamide, reference compound], for which, in assay [2], the inhibition constant Ki amounted to 18 nM and the “Δ hM2: change in binding affinity relative to compound of the invention” value is “×39”. In addition, in assay [1] (setting [4]), the inhibition constant (Ki) came out at 2.5 nM. Further, the “Δ hM3: change in binding affinity relative to compound of the invention” value in assay [1] is “×52”.

As for `NC(=O)C(c1ccccc1)(c1ccccc1)[C@H]1CCN(CCCCCCCCNCc2ccccc2)C1` [Example 39, 2-[(R)-1-(8-Benzylaminooctyl)pyrrolidin-3-yl]-2,2-diphenylacetamide], in assay [1] (setting [3]), the Ki is below 50 nM.
